Each block holds one compound with its values, some of them ahead of it.
Key:
AtSOT18 [1] = target: T1, AtSOT18 (Arabidopsis thaliana, UniProt Q9C9C9); experiment: X-ray crystal structure of ternary complex ([…] Å); assay type: binding
T1 construct: gene SOT18; residues 26–347 in the model
T1 sequence (Q9C9C9 26-347): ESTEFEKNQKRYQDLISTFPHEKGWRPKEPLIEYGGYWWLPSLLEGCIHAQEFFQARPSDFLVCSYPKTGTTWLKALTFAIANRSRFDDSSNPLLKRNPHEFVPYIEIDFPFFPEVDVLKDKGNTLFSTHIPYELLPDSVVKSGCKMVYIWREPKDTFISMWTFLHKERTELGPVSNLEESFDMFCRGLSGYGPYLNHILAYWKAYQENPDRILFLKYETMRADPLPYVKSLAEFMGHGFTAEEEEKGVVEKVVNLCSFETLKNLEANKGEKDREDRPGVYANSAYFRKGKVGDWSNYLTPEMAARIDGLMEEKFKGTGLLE

AtSOT18 [2] = target: T2, AtSOT18 (Arabidopsis thaliana, UniProt Q9C9C9); experiment: sulphotransferase activity of purified enzyme, HPLC at […] nm; assay type: biochemical
T2 construct: gene SOT18
T2 sequence (Q9C9C9 1-350): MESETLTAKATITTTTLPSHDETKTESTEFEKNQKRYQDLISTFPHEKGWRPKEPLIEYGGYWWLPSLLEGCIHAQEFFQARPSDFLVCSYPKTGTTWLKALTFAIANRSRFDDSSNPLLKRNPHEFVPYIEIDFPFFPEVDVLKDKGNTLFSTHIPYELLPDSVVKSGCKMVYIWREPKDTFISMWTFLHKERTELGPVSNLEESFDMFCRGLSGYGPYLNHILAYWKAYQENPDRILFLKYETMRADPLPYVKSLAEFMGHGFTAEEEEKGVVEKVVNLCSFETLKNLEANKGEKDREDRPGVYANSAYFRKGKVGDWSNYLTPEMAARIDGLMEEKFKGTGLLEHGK

AtSOT18 [3] = target: T2, AtSOT18; experiment: as above; assay type: biochemical; remark: listed apart in the source
AtSOT18 [4] = target: T2, AtSOT18; experiment: as above; assay type: biochemical; remark: listed apart in the source
AtSOT18 [5] = target: T1, AtSOT18; experiment: X-ray crystal structure ([…] Å), plus competitive inhibition kinetics against PAPS; assay type: biochemical
AtSOT18 [6] = target: T2, AtSOT18; experiment: two-dimensional enzyme kinetic titration (HPLC), non-linear fit; assay type: biochemical
AtSOT18 [7] = target: T2, AtSOT18; experiment: sulphotransferase activity of purified enzyme, HPLC at […] nm; assay type: biochemical; remark: listed apart in the source

SMILES: C=CCC(=NOS(=O)(=O)O)S[C@@H]1O[C@H](CO)[C@@H](O)[C@H](O)[C@H]1O (stereo in doubt) [sinigrin]
X-ray crystal structure of ternary complex (1.92 Å) (AtSOT18 [1]): together with the product Gl sinigrin (PDB ID: 5MEX) were solved

3 MTP (AtSOT18 [2]): 1624 ± 122 pkatal mg^−1
SMILES: CSCCC/C(=N/O)S[C@@H]1O[C@H](CO)[C@@H](O)[C@H](O)[C@H]1O [3MTP, ds-3MTP]

8MTO (AtSOT18 [3]): 1618 ± 272 pkatal mg^−1
SMILES: CSCCCCCCCC/C(=N/O)S[C@@H]1O[C@H](CO)[C@@H](O)[C@H](O)[C@H]1O [8MTO, ds-8MTO]

I3M (AtSOT18 [4]): 501 ± 46 pkatal mg^−1
SMILES: OC[C@H]1O[C@@H](S/C(Cc2c[nH]c3ccccc23)=N\O)[C@H](O)[C@@H](O)[C@@H]1O [I3M, ds-I3M]

Ki (AtSOT18 [5]): 3 ± 1.7 µM
SMILES: Nc1ncnc2c1ncn2[C@@H]1O[C@H](COP(=O)(O)O)[C@@H](OP(=O)(O)O)[C@H]1O [PAP, 3′-phosphoadenosine 5′-phosphate]

SMILES: Nc1ncnc2c1ncn2[C@@H]1O[C@H](COP(=O)(O)OS(=O)(=O)O)[C@@H](OP(=O)(O)O)[C@H]1O [PAPS, 3′-phosphoadenosine 5′-phosphosulphate]
Kd (AtSOT18 [6]): 4.2 ± 2.6 µM

Sinigrin (AtSOT18 [7]): 879 ± 410 pkatal mg^−1
SMILES: C=CC/C(=N/O)S[C@@H]1O[C@H](CO)[C@@H](O)[C@H](O)[C@H]1O [Sinigrin (ds form), ds-Gl sinigrin]

Reference: paper PMC5482895, “Structural and biochemical studies of sulphotransferase 18 from Arabidopsis thaliana explain its substrate specificity and reaction mechanism” (Scientific Reports, 2017)
